Results on five compounds are retold here after patent EP3381898A1, “SYMMETRICAL TRIS-ARYL-AMIDE DERIVATIVES AND THEIR USE AS ANTI-HEPARANASE” (priority 2017, dated 2018).

The structures appear in SMILES notation. Structures can show the parent of a compound that is named as a salt. Where two headings read alike, the source gives them in different places.

For experiment [1], the system named is U87MG (human glioblastoma astrocytoma). Briefly: Cell adhesion assay on matrigel coated wells. The settings on record: percent of adhesion with respect to the control (100%). The format is cell-based. The protocol: (§1) Cell surface, non-integrin molecules such as heparan sulfate proteoglycans (HSPGs) may be involved in the regulation of early adhesive stages of cell-ECM interactions. A cell adhesion assay has been employed to determine if the newly designed heparanase inhibitors were able to interfere with adhesion properties of cancer cells.
(§2) HT1080 (human fibrosarcoma) and U87MG (human glioblastoma astrocytoma) cells were treated for 18-20 h with test compounds in complete medium supplemented with 10% FCS. Then cells were collected, washed in complete medium, and added to matrigel coated wells in triplicate, at previously identified optimal seeding density, and incubated at 37 °C in complete medium for times ranging from 15 minutes to 4h, according to the cell line. After incubation, the wells were washed three times with serum-free medium and the remaining firmly attached cells were stained with crystal-violet 0.1%. Optical density was measured at 560 nm by Victor 3 (Perkin-Elmer) plate analyzer. Each experiment was repeated three times.
(§3) Table 3. […] In Invasion assay, data were expressed as the percent invasion (range) with respect to cell migration through uncoated insert membrane. In Adhesion assay, data were expressed as the percent of adhesion with respect to the control (100%).

Experiment [2] deals with HT1080 (human fibrosarcoma). Briefly: Cell adhesion assay on matrigel coated wells. The format is cell-based. The conditions noted are these: percent of adhesion with respect to the control (100%). The protocol: as §1, §2, §3
Experiment [3] has as its system U87MG (human glioblastoma astrocytoma). Briefly: Matrigel cell invasion assay. The format is cell-based. The conditions noted are these: for inhibition at 2.5 µM: Homo sapiens, U-87 MG, read-out: Invasion Assay Inhibition U87MG. The protocol: (§4) Heparanase inhibitors were then evaluated for their activity on the invasive potential of HT1080 (human fibrosarcoma), U87MG (human glioblastoma astrocytoma) and U2OS (human osteosarcoma) human cell lines, using the Matrigel cell invasion assay which allows to assess the cell invasion ability of malignant and normal cells.
(§5) Invasion assay was performed using BioCoat cell culture inserts (BioCoat 8.0µm PET Membrane 24 Well Permeable Supports, Corning). Filters were coated with 100 µl of 300 µg/ml Matrigel dissolved in coating buffer (0.01 M Tris pH 8.0, 0.7% NaCl) (Becton-Dickinson Sciences). DMEM (Dulbecco's Modified Eagle's Medium) containing 5% FBS was added to the lower chambers. Cells were pre-treated with heparanase inhibitors for 24 h, detached and added to the upper chambers in media containing the inhibitors. Cells were allowed to invade for 24 h at 37°C in a CO2 incubator and then unmigrated cells were removed from the upper chamber with a cotton swab. The invading cells were fixed, stained with 0.1% crystal violet for 10 min at room temperature, photographed and counted under inverted microscope.
(§6) Test compounds were analyzed at fixed concentration (2.5 µM) for several fields, in duplicates. Activity of test compounds was compared to the reference compound. Activity of most interesting compound was confirmed in a second cell invasion assay. Data were expressed as the percent invasion with respect to cell migration through uncoated insert membrane.
as §3

Experiment [4] concerns HT1080 (human fibrosarcoma). Briefly: Matrigel cell invasion assay. The experiment is classed as cell-based. The settings on record: for inhibition at 2.5 µM: HT-1080, read-out: Invasion Assay Inhibition HT1080. The protocol: as §4, §5, §6, §3
For experiment [5], the system named is U2OS (human osteosarcoma). Briefly: Matrigel cell invasion assay. The experiment is classed as cell-based. The conditions noted are these: for inhibition at 2.5 µM: Homo sapiens, read-out: Invasion Assay Inhibition U2OS. The protocol: as §4, §5, §6, §3
For experiment [6], the system named is U87MG (human glioblastoma astrocytoma). Briefly: SRB Cell Cytotoxicity Assay (cell proliferation, 72h). The experiment is classed as cell-based. The settings on record: U-87 MG, read-out: Concentration (µM) of test compounds at which the cell growth is inhibited by 50 %. U87MG. The protocol:
(§7) SRB Cell Cytotoxicity Assay is an assay based upon the quantitative staining of cellular proteins by sulforhodamine B (SRB). This assay can be used for high-throughput drug screening ([…], Nature Protocol. 2006, 1, 112). Sulforhodamine B is an anionic aminoxanthene dye that forms an electrostatic complex with the basic amino acid residues of proteins under moderately acid conditions, which provides a sensitive linear response. […] Inhibition of cell proliferation was then measured by the classical colorimetric SRB Cell Cytotoxicity assay. Absorbance was measured by spectrophotometer at a wavelength of 510 nm and cell proliferation was determined as percent with respect to control cells (cells treated with the vehicle alone). EC50 values were then determined by GraphPad Prism.

Experiment [7] relates to HT1080 (human fibrosarcoma). The experiment is described as above. The format is cell-based. The settings on record: read-out: Concentration (µM) of test compounds at which the cell growth is inhibited by 50 %. HT1080. The protocol: as §7
For experiment [8], the system named is U2OS (human osteosarcoma). The experiment is described as above. The experiment is classed as cell-based. The conditions noted are these: read-out: Concentration (µM) of test compounds at which the cell growth is inhibited by 50 %. U2OS. The protocol: as §7
Experiment [9] has as its target T1, heparanase (Homo sapiens, UniProt Q9Y251).
T1 sequence (Q9Y251 158-543 limits assumed): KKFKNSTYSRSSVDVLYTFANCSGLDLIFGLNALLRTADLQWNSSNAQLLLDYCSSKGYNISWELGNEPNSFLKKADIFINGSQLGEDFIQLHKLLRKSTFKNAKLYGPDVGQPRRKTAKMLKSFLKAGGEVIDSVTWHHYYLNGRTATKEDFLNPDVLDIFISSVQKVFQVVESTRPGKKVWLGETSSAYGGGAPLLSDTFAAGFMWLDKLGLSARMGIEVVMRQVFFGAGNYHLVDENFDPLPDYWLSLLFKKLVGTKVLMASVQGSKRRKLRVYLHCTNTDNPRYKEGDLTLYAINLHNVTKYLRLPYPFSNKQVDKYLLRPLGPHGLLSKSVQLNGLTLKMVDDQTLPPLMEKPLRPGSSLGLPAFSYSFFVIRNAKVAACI
T1 sequence (Q9Y251 36-109 limits assumed): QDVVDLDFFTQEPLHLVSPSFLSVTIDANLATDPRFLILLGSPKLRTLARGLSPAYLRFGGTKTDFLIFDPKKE
Briefly: AGA*IA assay: heparanase-catalyzed fondaparinux cleavage, colorimetric (WST-1). The format is biochemical. The protocol:
All compounds were tested in a simple, accurate and robust microplate assay based on the cleavage of the synthetic heparin fragment, the pentasaccharide Fondaparinux (AGA*IA). This assay was originally developed by Hammond and coworkers (Hammond E, Li CP, Ferro V. Development of a colorimetric assay for heparanase activity suitable for kinetic analysis and inhibitor screening. Anal. Biochem. 396(1), 112-116 (2010)), where Fondaparinux corresponds to the methyl glycoside of the antithrombin III (ATIII)-activating pentasaccharide sequence of heparin. Fondaparinux is cleaved by heparanase to generate a reducing disaccharide, which can be quantitatively measured via a colorimetric or a fluorescence assay, the last by the fluorescent sensor polymer-H [Schiemann S, Lühn S, Alban S. Development of both colorimetric and fluorescence heparinase activity assays using fondaparinux as substrate. Anal. Biochem. 427(1), 82-89 (2012)].
The assay measures the appearance of the disaccharide product of heparanase-catalyzed fondaparinux cleavage colorimetrically using the tetrazolium salt WST-1. Assay was essentially performed as described with minor modifications. Briefly, NUNC ELISA 96-well plates were pre-treated with a solution of 4% BSA (bovin serum albumin) in phosphate-buffered saline containing 0.05% Tween 20 (PBST), for 2 h at 37°C, then washed three times with PBST, dried by tapping on paper towel and stored at -20°C. Before use, once again, the plates were washed with PBST.
Assay was carried out with 100 µl/well of assay solution containing 40 mM sodium acetate buffer (pH 5.0), 100 µM fondaparinux, 2.5 nM heparanase and serial dilutions of test compounds (tested in triplicate). Plates were sealed with adhesive tape and incubated, in the dark, for 3 h at 37°C, followed by development with 1.69 mM of the tetrazolium salt WST-1 solution in 0.1 M NaOH, for 1 h at 60°C. Then, the absorbance at 560 nm was measured through a microplate reader (Victor 3, Perkin Elmer).
Finally, the measurements were corrected by subtracting both the reagent background and the inner absorbance value of test compound.

Where [10] appears, read: Table 1, range activity classes, AGA*IA test on Fondaparinux, read-out: AGAIA assay IC50.
The mark [11] stands for this setting: Table 2, classes as in Table 1, read-out: AGA*IA assay.
Where [12] appears, read: AGA*IA screening, read-out: anti-heparanase activity.

Regarding `Cc1ccc(C(=O)Nc2ccc(S(=O)(=O)O)c3cc(S(=O)(=O)O)cc(S(=O)(=O)O)c23)cc1NC(=O)c1cccc(NC(=O)Nc2cccc(C(=O)Nc3cc(C(=O)Nc4ccc(S(=O)(=O)O)c5cc(S(=O)(=O)O)cc(S(=O)(=O)O)c45)ccc3C)c2)c1` [Suramin, reference compound], the “Adhesion Assay (%) U87MG” value in experiment [1] (10 µM (reference)) was 72.98%. Also, the “Adhesion Assay (%) HT1080” value in [2] (10 µM (reference)) worked out at 100%. In experiment [3] (U87MG, 10 µM (reference)), the “Invasion Assay Inhibition U87MG” value is listed as “-”. Besides, in experiment [4] (HT-1080, HT1080, 10 µM (reference)), the inhibition at 10 µM was below 50%. The “Invasion Assay Inhibition U2OS” value in [5] (10 µM (reference)) is reported as “-”. Besides, the EC50 was above 10 µM in experiment [6] (U87MG, 72h, SRB); above 10 µM in experiment [7] (HT-1080, HT1080, 72h, SRB); above 10 µM in experiment [8] (72h, SRB).
Consider `Cn1cc(NC(=O)Nc2cc(C(=O)Nc3cc(C(=O)Nc4cccc(CC(=O)NCC(=O)O)c4)n(C)c3)n(C)c2)cc1C(=O)Nc1cc(C(=O)Nc2cccc(CC(=O)NCC(=O)O)c2)n(C)c1` [Compound 18, Disodium 2,2'-{carbonylbis[imino(1-methyl-1H-pyrrole-4,2-diyl)carbonylimino(1-methyl-1H-pyrrole-4,2-diyl)carbonylimino-3,1-phenylene(1-oxoethane-2,1-diyl)imino]}diethanoate salt], for which the IC50 in experiment [9] (setting [10]) and in experiment [9] (setting [11]) was 500 to 990 nM each time. The “Adhesion Assay (%) U87MG” value in experiment [1] (2.5 µM) came out at 62.9%. For the same compound, the “Adhesion Assay (%) HT1080” value in [2] (2.5 µM) came out at 86.4%. Besides, the inhibition at 2.5 µM in [3] was below 50%; in [4], 50 to 90%; in [5], below 50%. Further, the EC50 in experiment [6] (72 h) was above 2.5 µM; in experiment [7] (HT-1080, 72 h), above 2.5 µM; in [8] (72 h), above 2.5 µM.
Turning to `Cn1cc(NC(=O)c2cc(NC(=O)Nc3cc(C(=O)Nc4cc(C(=O)Nc5cccc(CC(=O)NCC(=O)O)c5)n(C)c4)cc(C(F)(F)F)c3)cc(C(F)(F)F)c2)cc1C(=O)Nc1cccc(CC(=O)NCC(=O)O)c1` [Compound 13c, Disodium 2,2'-{carbonylbis[imino[5-(trifluoromethyl)-3,1-phenylene]carbonylimino(1-methyl-1H-pyrrole-4,2-diyl)carbonylimino-3,1-phenylene(1-oxoethane-2,1-diyl)imino]}diethanoate salt], the IC50 is below 500 nM in [9] (setting [12]), 50 to 490 nM in experiment [9] (setting [10]) and 50 to 490 nM in experiment [9] (setting [11]). Moreover, the “Adhesion Assay (%) U87MG” value in experiment [1] (2.5 µM) is on record as 22.0%. Besides, in experiment [2] (2.5 µM), the “Adhesion Assay (%) HT1080” value was found to be 88.2%. Further, the inhibition at 2.5 µM in experiment [3] is below 50%; in experiment [4] it was below 50%; in experiment [5], 50 to 90%. The EC50 was above 2.5 µM in experiment [6] (72 h); above 2.5 µM in experiment [7] (HT-1080, 72 h); above 2.5 µM in [8] (72 h).
As for `Cn1cc(NC(=O)c2cccc(NC(=O)Nc3cccc(C(=O)Nc4cc(C(=O)Nc5cccc(CC(=O)NCC(=O)O)c5)n(C)c4)c3)c2)cc1C(=O)Nc1cccc(CC(=O)NCC(=O)O)c1` [Compound 12b, 2,2'-((2,2'-(((4,4'-((3,3'-(Carbonylbis(azanediyl))bis(benzoyl))bis(azanediyl))bis(1-methyl-1H-pyrrole-4,2-diyl-2-carbonyl))bis(azanediyl))bis(3,1-phenylene))bis(acetyl))bis(azanediyl))diacetic acid], the IC50 in [9] (setting [12]) is below 500 nM; in experiment [9] (setting [10]), 50 to 490 nM; in experiment [9] (setting [11]) it was 50 to 490 nM. Further, in experiment [1] (2.5 µM), the “Adhesion Assay (%) U87MG” value is on record as 16.7%. Also, the “Adhesion Assay (%) HT1080” value in experiment [2] (2.5 µM) came out at 97.1%. Moreover, the inhibition at 2.5 µM in experiment [3] and in experiment [4] was below 50% each time. Besides, the “Invasion Assay Inhibition U2OS” value in experiment [5] (2.5 µM) is “-”. Further, the EC50 in [6] (72 h) was above 2.5 µM; in experiment [7] (HT-1080, 72 h), above 2.5 µM; in [8] (72 h), above 2.5 µM.
On to `Cn1cc(NC(=O)Nc2cc(C(=O)Nc3cc(C(=O)Nc4cccc(CC(=O)N[C@@H](Cc5ccccc5)C(=O)O)c4)n(C)c3)n(C)c2)cc1C(=O)Nc1cc(C(=O)Nc2cccc(CC(=O)N[C@@H](Cc3ccccc3)C(=O)O)c2)n(C)c1` [Compound 17e, 2,2'-{carbonylbis[imino(1-methyl-1H-pyrrole-4,2-diyl)carbonylimino(1-methyl-1H-pyrrole-4,2-diyl)carbonylimino-3,1-phenylene(1-oxoethane-2,1-diyl)imino]}bis(3-phenylpropanoic acid)], for which the IC50 in experiment [9] (setting [10]) and in experiment [9] (setting [11]) was 500 to 990 nM in each case. In addition, the “Adhesion Assay (%) U87MG” value in experiment [1] (2.5 µM) came to 51.6%. In experiment [2] (2.5 µM), the “Adhesion Assay (%) HT1080” value is 93.2%. The inhibition at 2.5 µM in [3] and in experiment [4] was below 50% in each case. Also, in experiment [5] (2.5 µM), the “Invasion Assay Inhibition U2OS” value was “-”. Further, the EC50 in experiment [6] (72 h) is above 2.5 µM; in [7] (HT-1080, 72 h) it was above 2.5 µM; in [8] (72 h), above 2.5 µM.
